Measurements reported in patent publication US7998989B2, “2-Imino-1,3-thiazoline-based compounds and T-type calcium channel inhibitors containing the same” (Korea Institute of Science and Technology, priority 2007, dated 2011).

What was measured:
[1] = target: T1, α1G T-type calcium channel (Homo sapiens, UniProt O43497); experiment: Assay for % inhibiting activity against T-type calcium channel using FDSS6000 (fluo-3 calcium imaging, KCl activation); type: cell-based; conditions: 10 μM; HEK293 cells stably expressing α1G T-type calcium channel and Kir2.1; compounds of the examples
T1 construct: host or cells: HEK293
Method in brief: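 HEK293 cells stably expressing α1G and Kir2.1 loaded with 5 μM fluo-3/AM, then in HEPES buffer (pH 7.4) with 10 mM CaCl2. Compound applied 75 s before 75 mM KCl; intracellular Ca2+ read as […] area, % inhibition relative to untreated control.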

[2] = target: T1, α1G T-type calcium channel; experiment: Electrophysiological whole cell patch clamp measurement of T-type calcium channel current in HEK293 cells; type: cell-based; conditions: HEK293 cells expressing α1G; for HEK293cell (% Inhibition) 10 μM: inhibition of peak current; for IC50: read-out: IC50 (a1G)
Description: In the present invention, in order to examine an efficient inhibitor against the T-type calcium channel, a primary assay for T-type calcium channel inhibiting activity was conducted by a high-efficient assay using FDSS6000, wherein mammal HEK293 cell lines (originated from human kidney carcinoma cells) that specifically express α1G of the T-type calcium channel was used for primary assay. Through the primary assay, compounds that show meaningful inhibition effects were selected. The selected compounds were used in a second assay for T-type calcium channel inhibiting activity using an electrophysiological whole cell patch clamp method, wherein mammal HEK293 cell lines (originated from human kidney carcinoma cells) that specifically express α1G of the T-type calcium channel was used for the second assay. Mibefradil, which had been developed as a T-type calcium channel inhibitor, was used as a reference.
10% Fetal bovine serum (FBS) and 1% penicillin/streptomycin (v/v) were added to Dulbecco's modified Eagle's medium (DMEM), to be used as a media solution. The cells were cultured in an incubator under a wet condition of 95% air/5% CO2 and a temperature of 36.5° C. The media solution was refreshed every 3 or 4 days, and the cells were sub-cultured every week. Only the cells that expressed α1G T-type calcium channel were cultured using a G-418 (0.5 mg/ml) solution. The recording of the cells used in the T-type calcium channel activity analysis was conducted at 2-7 days after the cells were culturing on a cover slip coated with poly-L-lysine (0.5 mg/ml) when conducting every sub-culture. For analysis at a single cell level, the T-type calcium channel current was measured by an electrophysiological whole cell patch clamp method using EPC-9 amplifier (HEKA, German).
As solutions for analyzing T-type calcium channel activity, a solution including NaCl 140 mM, CaCl2 2 mM, and HEPES10 mM (pH 7.4, Sigma; 4-(2-hydroxyethyl)piperazine-1-ethanesulfonic acid) was used as an extracellular solution, and a solution including KCl 130 mM, HEPES 10 mM (Sigma), EGTA 11 mM (ethylene glycol-bis(2-aminoethylether)-N,N,N′,N′-tetraacetic acid, Sigma), and MgATP 5 mM (pH 7.4, Sigma) was used as an intracellular solution. The protocol for T-type calcium channel activity that is activated at low voltage is as follows. A micro-glass electrode with resistance of 3-4 MΩ wherein the above-prepared intracellular solution was filled was pricked into a single cell, to make a whole-cell recording mode. Thereafter, the cell membrane potential was fixed to −100 mV, and then the inward current due to the T-type calcium channel activity when hypopolarizing to −30 mV (50 ms duration) was measured every 10 seconds.
Each compound to be tested was dissolved in 100% dimethylsulfoxide (DMSO) to make a 10 mM stock solution. The effect of the compound on the T-type calcium channel current compound was initially examined in the stock solution with the 1000-times diluted concentration of 10 μM (containing 0.1% DMSO) and then examined in the solution with the concentration for IC50 measurement (mostly 0.1 to 100 μM), to obtain an IC50 value. More specifically, the cells were treated in each compound together with the extracellular solution for 30 to 60 seconds, and the inhibition level of peak current induced by the compound was calculated as a percentage, to obtain the % inhibition value as shown in Table 4.

T1 sequence (O43497 whole entry): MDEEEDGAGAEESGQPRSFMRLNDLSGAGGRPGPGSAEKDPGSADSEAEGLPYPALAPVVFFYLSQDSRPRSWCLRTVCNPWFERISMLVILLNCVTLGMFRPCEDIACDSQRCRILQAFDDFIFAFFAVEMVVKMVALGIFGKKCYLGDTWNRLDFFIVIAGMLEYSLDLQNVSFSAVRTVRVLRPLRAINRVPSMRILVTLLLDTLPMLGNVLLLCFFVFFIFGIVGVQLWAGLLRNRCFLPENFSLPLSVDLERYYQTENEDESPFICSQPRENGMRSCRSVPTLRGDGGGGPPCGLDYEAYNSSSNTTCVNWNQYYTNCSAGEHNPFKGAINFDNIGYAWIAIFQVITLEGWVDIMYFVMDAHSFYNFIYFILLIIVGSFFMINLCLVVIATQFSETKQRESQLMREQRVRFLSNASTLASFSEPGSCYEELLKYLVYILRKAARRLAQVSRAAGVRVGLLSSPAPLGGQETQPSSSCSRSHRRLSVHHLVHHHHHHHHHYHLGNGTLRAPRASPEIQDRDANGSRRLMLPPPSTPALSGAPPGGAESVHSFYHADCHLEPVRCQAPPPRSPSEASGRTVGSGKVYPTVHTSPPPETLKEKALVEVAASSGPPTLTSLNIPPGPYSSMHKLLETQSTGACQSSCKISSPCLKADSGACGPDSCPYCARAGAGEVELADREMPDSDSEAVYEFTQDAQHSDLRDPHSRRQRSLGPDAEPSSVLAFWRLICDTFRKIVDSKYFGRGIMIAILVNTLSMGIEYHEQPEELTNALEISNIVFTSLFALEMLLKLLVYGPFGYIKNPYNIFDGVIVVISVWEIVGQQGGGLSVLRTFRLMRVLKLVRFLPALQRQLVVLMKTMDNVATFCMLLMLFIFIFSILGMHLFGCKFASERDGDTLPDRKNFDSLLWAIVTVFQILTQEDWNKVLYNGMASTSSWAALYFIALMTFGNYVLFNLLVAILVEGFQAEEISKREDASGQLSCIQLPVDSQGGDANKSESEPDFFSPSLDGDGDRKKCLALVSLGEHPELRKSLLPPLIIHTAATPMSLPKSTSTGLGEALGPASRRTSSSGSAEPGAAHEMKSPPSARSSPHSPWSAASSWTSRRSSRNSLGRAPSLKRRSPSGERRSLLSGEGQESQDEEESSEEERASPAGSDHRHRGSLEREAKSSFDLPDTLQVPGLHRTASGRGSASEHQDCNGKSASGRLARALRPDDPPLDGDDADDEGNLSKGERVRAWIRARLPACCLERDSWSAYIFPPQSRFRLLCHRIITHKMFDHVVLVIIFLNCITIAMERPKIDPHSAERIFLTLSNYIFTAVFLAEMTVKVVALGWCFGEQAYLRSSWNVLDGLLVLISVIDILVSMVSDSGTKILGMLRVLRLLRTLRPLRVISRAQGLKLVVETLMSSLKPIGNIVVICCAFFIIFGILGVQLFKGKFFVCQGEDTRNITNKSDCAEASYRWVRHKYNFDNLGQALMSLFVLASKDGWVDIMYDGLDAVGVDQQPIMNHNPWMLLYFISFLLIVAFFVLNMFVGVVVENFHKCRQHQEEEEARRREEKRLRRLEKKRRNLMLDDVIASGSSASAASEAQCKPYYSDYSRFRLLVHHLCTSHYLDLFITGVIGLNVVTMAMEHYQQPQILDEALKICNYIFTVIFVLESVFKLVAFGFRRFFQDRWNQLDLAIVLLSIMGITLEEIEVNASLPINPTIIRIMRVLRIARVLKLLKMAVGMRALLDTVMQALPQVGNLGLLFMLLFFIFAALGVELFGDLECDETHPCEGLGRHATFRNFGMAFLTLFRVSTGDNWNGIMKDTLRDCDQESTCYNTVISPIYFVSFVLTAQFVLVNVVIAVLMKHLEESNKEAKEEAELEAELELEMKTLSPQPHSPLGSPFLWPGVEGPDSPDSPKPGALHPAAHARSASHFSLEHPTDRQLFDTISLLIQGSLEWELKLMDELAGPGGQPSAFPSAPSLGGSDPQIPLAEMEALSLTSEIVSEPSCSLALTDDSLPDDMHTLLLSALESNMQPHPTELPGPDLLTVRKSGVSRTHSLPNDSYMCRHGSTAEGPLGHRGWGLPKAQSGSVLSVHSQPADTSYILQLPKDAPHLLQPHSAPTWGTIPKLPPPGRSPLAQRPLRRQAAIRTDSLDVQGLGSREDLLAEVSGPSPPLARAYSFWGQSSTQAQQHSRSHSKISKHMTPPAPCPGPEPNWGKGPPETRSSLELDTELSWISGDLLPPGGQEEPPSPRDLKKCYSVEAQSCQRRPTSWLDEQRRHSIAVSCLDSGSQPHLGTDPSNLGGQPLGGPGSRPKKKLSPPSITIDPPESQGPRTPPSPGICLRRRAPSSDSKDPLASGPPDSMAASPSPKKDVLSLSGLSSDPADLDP

Row | Compound | FDSS (% inhibition)/10uM [1] | HEK293cell (% Inhibition) 10 μM [2] | IC50 [2]
1 | [2-(1-adamantylimino)-3-ethyl-1,3-thiazolidine-4-yl]-N-(4-ethylphenyl)-acetamide hydrochloride [KHG24847] | 72.23% | 95.5 ± 2.7% | 350 ± 10 nM
2 | (2-cycloheptylimino-3-methyl-1,3-thiazolidine-4-yl)-N-(5-chloro-2-fluorophenyl)-acetamide hydrochloride [KHG24128] | 62.56% | 88.1 ± 1.9% | 550 ± 10 nM
3 | [2-(1-adamantylimino)-3-cyclopropyl-1,3-thiazolidine-4-yl]-N-(4-isopropylphenyl)-acetamide hydrochloride [KHG24788] | 72.88% | 95.3 ± 0.4% | 310 ± 20 nM
4 | (2-cyclohexylimino-3-methyl-1,3-thiazolidine-4-yl)-N-(3,5-dichlorophenyl)-acetamide hydrochloride [KHG23356] | 60.46% | 97.0 ± 0.7% | 230 ± 10 nM
5 | (2-cycloheptylimino-3-methyl-1,3-thiazolidine-4-yl)-N-(4-ethylphenyl)-acetamide hydrochloride [KHG24117] | 67.09% | 93.0 ± 2.5% | 570 ± 70 nM
6 | (2-cycloheptylimino-3-methyl-1,3-thiazolidine-4-yl)-N-(2-fluoro-5-nitrophenyl)-acetamide hydrochloride [KHG24129] | 61.39% | 90.0 ± 0.4% | 1570 ± 110 nM
7 | [2-(1-adamantyl)imino-3-methyl-1,3-thiazolidine-4-yl]-N-(4-trifluoromethylphenyl)-acetamide hydrochloride [KHG24240] | 70.68% | 96.2 ± 1.1% | 230 ± 20 nM
8 | (2-cycloheptylimino-3-methyl-1,3-thiazolidine-4-yl)-N-(2,4-difluorophenyl)-acetamide hydrochloride [KHG24127] | 49.69% | 80.8 ± 0.6% | 2660 ± 330 nM
9 | (2-cyclohexylimino-3-methyl-1,3-thiazolidine-4-yl)-N-(2-fluoro-5-nitrophenyl)-acetamide hydrochloride [KHG23360] | 66.64% | 87.8 ± 2.2% | 780 ± 80 nM
10 | (2-cyclohexylimino-3-methyl-1,3-thiazolidine-4-yl)-N-(4-phenoxyphenyl)-acetamide hydrochloride [KHG23355] | 58.95% | 88.1 ± 2.0% | 1510 ± 170 nM
11 | CN1C(=NC2CCCCCC2)SCC1CC(=O)Nc1cc(Cl)cc(Cl)c1.Cl (stereo not drawn) [KHG24125, (2-cycloheptylimino-3-methyl-1,3-thiazolidine-4-yl)-N-(3,5- ? chlorophenyl)-acetamide hydrochloride] | 71.79% | 95.6 ± 1.2% | 80 ± 10 nM
12 | (2-cycloheptylimino-3-methyl-1,3-thiazolidine-4-yl)-N-(2-fluoro-4-methylphenyl)-acetamide hydrochloride [KHG24126] | 53.79% | 87.7 ± 0.6% | 1200 ± 80 nM
13 | (2-cyclohexylimino-3-methyl-1,3-thiazolidine-4-yl)-N-(4-chloro-2-fluorophenyl)-acetamide hydrochloride [KHG23361] | 62.4% | 71.4 ± 3.4% | 4090 ± 700 nM
14 | (2-cycloheptylimino-3-methyl-1,3-thiazolidine-4-yl)-N-(2-chloro-4-fluorophenyl)-acetamide hydrochloride [KHG24120] | 60.08% | 82.7 ± 0.9% | 2750 ± 250 nM
15 | [2-(1-adamantylimino)-3-n-propyl-1,3-thiazolidine-4-yl]-N-(4-fluorophenyl)-acetamide hydrochloride [KHG24811] | 71.82% | 94.8 ± 0.7% | 600 ± 40 nM
16 | (2-cycloheptylimino-3-methyl-1,3-thiazolidine-4-yl)-N-(4-methoxybenzyl)-acetamide hydrochloride [KHG24161] | 31.29% | 81.2 ± 1.3% | 1670 ± 510 nM
17 | [2-(1-adamantylimino)-3-n-propyl-1,3-thiazolidine-4-yl]-N-(4-chloro-2-fluorophenyl)-acetamide hydrochloride [KHG24816] | 80.83% | 95.6 ± 0.8% | 510 ± 10 nM
18 | [2-(1-adamantyl)imino-3-methyl-1,3-thiazolidine-4-yl]-N-(5-chloro-2-fluorophenyl)-acetamide hydrochloride [KHG24242] | 53.38% | 85.2 ± 1.3% | 970 ± 140 nM
19 | [2-(1-adamantyl)imino-3-methyl-1,3-thiazolidine-4-yl]-N-(4-isopropylphenyl)-acetamide hydrochloride [KHG24243] | 60.9% | 97.0 ± 1.1% | 50 ± 10 nM
20 | [2-(1-adamantylimino)-3-cyclopropyl-1,3-thiazolidine-4-yl]-N-(4-n-butylphenyl)-acetamide hydrochloride [KHG24789] | 78.21% | 95.1 ± 0.7% | 190 ± 20 nM
21 | (2-cycloheptylimino-3-methyl-1,3-thiazolidine-4-yl)-N-(4-n-butylphenyl)-acetamide hydrochloride [KHG24134] | 75.92% | 95.1 ± 2.0% | 340 ± 30 nM
22 | (2-cyclohexylimino-3-methyl-1,3-thiazolidine-4-yl)-N-(4-methylphenyl)-acetamide hydrochloride [KHG24077] | 46.41% | 57.0 ± 1.5% | 7220 ± 360 nM
23 | (2-cyclohexylimino-3-methyl-1,3-thiazolidine-4-yl)-N-(3,5-ditrifluoromethylphenyl)-acetamide hydrochloride [KHG24075] | 73.72% | 94.1 ± 1.5% | 320 ± 20 nM
24 | [2-(1-adamantyl)imino-3-methyl-1,3-thiazolidine-4-yl]-N-(4-chlorophenyl)-acetamide hydrochloride [KHG24238] | 73.31% | 95.9 ± 1.8% | 530 ± 20 nM
25 | (2-cycloheptylimino-3-methyl-1,3-thiazolidine-4-yl)-N-(4-methoxyphenyl)-acetamide hydrochloride [KHG24119] | 52.85% | 72.9 ± 1.0% | 4440 ± 280 nM
26 | [2-(1-adamantyl)imino-3-methyl-1,3-thiazolidine-4-yl]-N-(4-fluorophenyl)-acetamide hydrochloride [KHG24237] | 74.81% | 91.2 ± 3.1% | 770 ± 30 nM
27 | (2-cyclohexylimino-3-methyl-1,3-thiazolidine-4-yl)-N-(4-chlorophenyl)-acetamide hydrochloride [KHG23362] | 66.17% | 89.3 ± 0.9% | 530 ± 30 nM
28 | (2-cycloheptylimino-3-methyl-1,3-thiazolidine-4-yl)-N-(4-isopropylphenyl)-acetamide hydrochloride [KHG24133] | 69.18% | 96.0 ± 1.9% | 420 ± 10 nM
